The source of these data is patent US20100061945A1, “Use Of Quinoa Extract As Cosmetic And Pharmaceutic Slimming Agent And/Or As An Agent Preventing The Formation Of New Fats In The Human Body” (Societe D'Exploitation Des Produits Pour Les Indus tries …, priority 2006, published 2010).

The test system of one assay is normal human adipocytes. Put plainly: Lipolytic activity in isolated normal human adipocytes by assaying the free fatty acids. The assay is classed as cell-based. To be noted: incubation concentration 0.0001 weight % DE, two hours at 37° C.
For assay [1], the system named is murine preadipocytes (3T3-L1 line). Briefly: Differentiation of preadipocytes to adipocytes, G6PDH activity assay. The assay is classed as cell-based. To be noted: incubation concentration 0.0000001 weight % DE (1 ng/ml). The protocol:
1—Principle of the Method • The method described consists in incubating the product in the presence of murine preadipocytes (3T3-L1 line) which, under the influence of an appropriate culture medium, differentiate into mature adipocytes capable of storing triglycerides. The differentiation is evaluated by an enzymatic assay of Glucose-6-phosphate dehydrogenase (G6PDH). This enzyme, which is located within the adipocytes, allows the conversion of Glucose-6-phosphate to Gluconate-6-phosphate in the presence of Nicotinamide Adenine Dinucleotide Phosphate (NAPD) and leads to the formation of Hydrogenated Nicotinamide Adenine Dinucleotide Phosphate (NAPDH) used for the neosynthesis of fatty acids. It is present in the mature adipocytes. The formation of NAPDH is monitored by absorption spectrophotometry at 340 nanometers.
2—Experimental Protocol • (i)—Cellular model: The test is carried out using murine preadipocytes (3T3-L1 cell line) cultured in a monolayer until confluence is obtained. […] The G6PDH activity of the cellular lyzates is measured by adding its substrate, D-glucose 6P (1 mmol) and its cofactor NADP (8 mmol). The kinetics of appearance of NAPDH is measured by spectrophotometry at 340 nm for 2 minutes. […]

Turning to `Cn1c(=O)c2c(ncn2C)n(C)c1=O` [Caffeine, 1,3,7-trimethyl-xanthine], the “Lipolytic activity (compared with the control = 100)” value with normal human adipocytes was determined as 154. Besides, the “Free fatty acid concentration” value with normal human adipocytes (mean of five assays, control 16 ± 3) came to 25 ± 4 µmol.
With TNFα, the “% inhibition (differentiation of the preadipocytes)” value in assay [1] worked out at 43%. In assay [1] (differentiated control 0.46 ± 0.03, undifferentiated control 0.03 ± 0.002), this compound had a G6PDH of 0.005 ± 0.01 U/ml.
